Test results: patent US8440660B2 (Santen Pharmaceutical Co., Ltd., priority 2006, dated 2013)

Each compound was assayed against T1, Glucocorticoid Receptor (GR) (Homo sapiens, UniProt P04150) (assay: GR receptor competitor assay by fluorescence polarization (Invitrogen GR competitor assay kit, cat No. P2816)). Settings: 20 μM test compound solution, 10 μL per well plus 5 μL 4×GS1 and 5 μL 4×GR solution; recombinant human GR; 2 to 4 hours at room temperature; a ratio of 100% or more is indicated by 100%; read-out: GR Binding ratio (%).
T1 construct: purchased Invitrogen P2816
T1 sequence (P04150 1-777): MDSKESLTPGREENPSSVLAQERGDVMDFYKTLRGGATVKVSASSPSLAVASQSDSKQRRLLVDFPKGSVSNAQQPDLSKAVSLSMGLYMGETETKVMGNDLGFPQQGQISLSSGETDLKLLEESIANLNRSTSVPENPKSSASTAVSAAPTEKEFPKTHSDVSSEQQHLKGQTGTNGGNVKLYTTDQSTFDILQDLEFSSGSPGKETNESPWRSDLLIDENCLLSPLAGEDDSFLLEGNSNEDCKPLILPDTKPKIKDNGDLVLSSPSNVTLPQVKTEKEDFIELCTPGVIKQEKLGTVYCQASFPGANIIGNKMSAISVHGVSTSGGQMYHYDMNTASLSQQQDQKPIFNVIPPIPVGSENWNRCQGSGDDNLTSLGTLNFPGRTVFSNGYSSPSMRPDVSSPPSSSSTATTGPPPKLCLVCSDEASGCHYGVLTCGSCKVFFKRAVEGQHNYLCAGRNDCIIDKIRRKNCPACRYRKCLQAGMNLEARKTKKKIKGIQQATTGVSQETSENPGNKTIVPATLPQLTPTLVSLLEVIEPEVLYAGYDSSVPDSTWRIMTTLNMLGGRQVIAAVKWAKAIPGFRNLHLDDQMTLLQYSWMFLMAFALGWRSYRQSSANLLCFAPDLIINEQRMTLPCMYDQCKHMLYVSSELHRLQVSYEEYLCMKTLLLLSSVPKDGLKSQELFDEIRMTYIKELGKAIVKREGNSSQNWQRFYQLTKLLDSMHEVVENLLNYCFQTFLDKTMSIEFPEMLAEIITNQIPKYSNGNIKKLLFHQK
Experimental: A detailed explanation of this matter will be described in the section of “Pharmacological Test” in Examples described below. In order to find the usefulness of the present compound as a pharmaceutical, a glucocorticoid receptor competitor assay was carried out by a fluorescence polarization method by using a glucocorticoid receptor competitor assay kit (manufactured by Invitrogen, cat No P2816) to study the glucocorticoid receptor binding activity of the present compound.
1. Evaluation Test for Binding Activity to Glucocorticoid Receptor (Hereinafter Referred to as “GR”)
In order to evaluate a binding activity to GR, a receptor competitor assay was carried out by a fluorescence polarization method. In the assay, a GR competitor assay kit (manufactured by Invitrogen, cat No. P2816) was used, and a procedure was carried out according to the protocol attached to the kit. Hereinafter, the specific method will be described.
(Preparation of Reagents)
GR screening buffer: A buffer containing 10 mM potassium phosphate (pH 7.4), 20 mM sodium molybdate (Na2MoO4), 0.1 mM ethylene diamine tetraacetic acid (EDTA), 5 mM dithiothreitol (DTT), 0.1 mM stabilizing peptide and 2% dimethylsulfoxide was prepared.
4×GS1 solution: Fluormone™ GS1, which is a fluorescent glucocorticoid ligand, was diluted with GR screening buffer, whereby a 4 nM solution was prepared.
4×GR solution: Recombinant human GR was diluted with GR screening buffer, whereby a 16 nM solution was prepared.
(Preparation of Test Compound Solution)
After a test compound was dissolved in dimethylsulfoxide, the resulting solution was diluted with GR screening buffer, whereby a 20 μM test compound solution was prepared.
(Test Method and Measurement Method)
1) The test compound solution was added in an amount of 10 μL into each well of a 384-well plate, and then, 4×GS1 solution and 4×GR solution were added in an amount of 5 μL into each well, respectively.
2) The plate was incubated in a dark place at room temperature for 2 to 4 hours.
3) By using a multimode plate reader, Analyst™ HT (manufactured by LJL Biosystems), fluorescence polarization of each well was measured. As the blank, a well containing GR screening buffer in place of the test compound and 4×GS1 solution was used.
4) The same procedure as that in the above 1) to 3) was carried out except that GR screening buffer was used in place of the test compound solution, and the obtained result was taken as the negative control.
5) The same procedure as that in the above 1) to 3) was carried out except that 2 mM dexamethasone was used in place of the test compound solution, and the obtained result was taken as the positive control.
(Calculation Equation of GR Binding Ratio)
A GR binding ratio (%) was calculated from the following equation. GR binding ratio (%)=100×[1−(fluorescence polarization of test compound solution−fluorescence polarization of positive control solution)/(fluorescence polarization of negative control solution−fluorescence polarization of positive control solution)] (Test Results and Discussion)

SMILES	inhibition at 10 µM
C=CC(=O)Oc1ccc(-c2ccc3c(c2COc2cc(F)ccc2C)C(C)=CC(C)(C)N3)c(OC)c1 [Compound 1-17, 6-(4-Acryloyloxy-2-methoxyphenyl)-5-(5-fluoro-2-methylphenoxymethyl)-2,2,4-trimethyl-1,2-dihydroquinoline]	100%
CCCC(=O)Oc1ccc(-c2ccc3c(c2COc2cc(F)ccc2C)C(C)=CC(C)(C)N3)c(OC)c1 [Compound 1-14, 6-(4-Butyryloxy-2-methoxyphenyl)-5-(5-fluoro-2-methylphenoxymethyl)-2,2,4-trimethyl-1,2-dihydroquinoline]	100%
COc1cc(OC(=O)NC(C)C)ccc1-c1ccc2c(c1COc1cc(F)ccc1C)C(C)=CC(C)(C)N2 [Compound 6-21, 6-(4-Isopropylaminocarbonyloxy-2-methoxyphenyl)-5-(5-fluoro-2-methylphenoxymethyl)-2,2,4-trimethyl-1,2-dihydroquinoline]	92%
COc1cc(OC(=O)c2ccccc2F)ccc1-c1ccc2c(c1COc1cc(F)ccc1C)C(C)=CC(C)(C)N2 [Compound 1-59, 6-[4-(2-Fluorobenzoyloxy)-2-methoxyphenyl]-5-(5-fluoro-2-methylphenoxymethyl)-2,2,4-trimethyl-1,2-dihydroquinoline]	100%
COc1cc(OC(=O)c2cccnc2)ccc1-c1ccc2c(c1COc1cc(F)ccc1C)C(C)=CC(C)(C)N2 [Compound 1-13, 5-(5-Fluoro-2-methylphenoxymethyl)-6-[2-methoxy-4-(pyridin-3-ylcarbonyloxy)phenyl]-2,2,4-trimethyl-1,2-dihydroquinoline]	100%
COc1cc(OC(=O)Nc2ccc(C#N)cc2)ccc1-c1ccc2c(c1COc1cc(F)ccc1C)C(C)=CC(C)(C)N2 [Compound 6-17, 6-[4-(4-Cyanophenylaminocarbonyloxy)-2-methoxyphenyl]-5-(5-fluoro-2-methylphenoxymethyl)-2,2,4-trimethyl-1,2-dihydroquinoline]	90%
COc1cc(OC(=O)C(C)C)ccc1-c1ccc2c(c1COc1cc(F)ccc1C)C(C)=CC(C)(C)N2 [Compound 1-20, 5-(5-Fluoro-2-methylphenoxymethyl)-6-(4-isobutyryloxy-2-methoxyphenyl)-2,2,4-trimethyl-1,2-dihydroquinoline]	100%
COc1cc(OC(=O)c2ccsc2)ccc1-c1ccc2c(c1COc1cc(F)ccc1C)C(C)=CC(C)(C)N2 [Compound 1-18, 5-(5-Fluoro-2-methylphenoxymethyl)-6-[2-methoxy-4-(thiophen-3-ylcarbonyloxy)phenyl]-2,2,4-trimethyl-1,2-dihydroquinoline]	100%
COc1cc(OC(=O)c2ccccc2SC)ccc1-c1ccc2c(c1COc1cc(F)ccc1C)C(C)=CC(C)(C)N2 [Compound 1-52]	96%
COc1cccc(NC(=O)Oc2ccc(-c3ccc4c(c3COc3cc(F)ccc3C)C(C)=CC(C)(C)N4)c(OC)c2)c1 [Compound 6-12, 5-(5-Fluoro-2-methylphenoxymethyl)-6-[2-methoxy-4-(3-methoxyphenylaminocarbonyloxy)phenyl]-2,2,4-trimethyl-1,2-dihydroquinoline]	98%

Further lines, results first:

inhibition at 10 µM	SMILES
98%	COc1ccc([N+](=O)[O-])cc1OCc1c(-c2ccc(OS(=O)(=O)C3CC3)cc2OC)ccc2c1C(C)=CC(C)(C)N2 [Compound 4-19, 6-(4-Cyclopropylsulfonyloxy-2-methoxyphenyl)-5-(2-methoxy-5-nitrophenoxymethyl)-2,2,4-trimethyl-1,2-dihydroquinoline]
100%	COc1cc(OC(=O)c2cccnc2C)ccc1-c1ccc2c(c1COc1cc(F)ccc1C)C(C)=CC(C)(C)N2 [Compound 1-63, 5-(5-Fluoro-2-methylphenoxymethyl)-6-[2-methoxy-4-(2-methylpyridin-3-ylcarbonyloxy)phenyl]-2,2,4-trimethyl-1,2-dihydroquinoline]
94%	COc1cc(OC(=O)c2ccccc2)ccc1-c1ccc2c(c1COc1cc(F)ccc1C)C(C)=CC(C)(C)N2 [Compound 1-1, 6-(4-Benzoyloxy-2-methoxyphenyl)-5-(5-fluoro-2-methylphenoxymethyl)-2,2,4-trimethyl-1,2-dihydroquinoline]
100%	COc1cc(OC(=O)c2cncnc2)ccc1-c1ccc2c(c1COc1cc(F)ccc1C)C(C)=CC(C)(C)N2 [Compound 1-78, 5-(5-Fluoro-2-methylphenoxymethyl)-6-[2-methoxy-4-(pyrimidin-5-ylcarbonyloxy)phenyl]-2,2,4-trimethyl-1,2-dihydroquinoline]
95%	COc1ccc(OC(=O)c2ccncc2)cc1-c1ccc2c(c1COc1cc(F)ccc1C)C(C)=CC(C)(C)N2 [Compound 1-45, 5-(5-Fluoro-2-methylphenoxymethyl)-6-[2-methoxy-5-(pyridin-4-ylcarbonyloxy)phenyl]-2,2,4-trimethyl-1,2-dihydroquinoline]
90%	CCCCS(=O)(=O)Oc1ccc(-c2ccc3c(c2COc2cc(F)ccc2C)C(C)=CC(C)(C)N3)c(OC)c1 [Compound 4-14, 6-(4-Butylsulfonyloxy-2-methoxyphenyl)-5-(5-fluoro-2-methylphenoxymethyl)-2,2,4-trimethyl-1,2-dihydroquinoline]
99%	CCCS(=O)(=O)Oc1ccc(-c2ccc3c(c2COc2cc([N+](=O)[O-])ccc2OC)C(C)=CC(C)(C)N3)c(OC)c1 [Compound 4-18, 5-(2-Methoxy-5-nitrophenoxymethyl)-6-(2-methoxy-4-propylsulfonyloxyphenyl)-2,2,4-trimethyl-1,2-dihydroquinoline]
100%	COc1cc(OC(=O)c2cccc(F)c2)ccc1-c1ccc2c(c1COc1cc(F)ccc1C)C(C)=CC(C)(C)N2 [Compound 1-60, 6-[4-(3-Fluorobenzoyloxy)-2-methoxyphenyl]-5-(5-fluoro-2-methylphenoxymethyl)-2,2,4-trimethyl-1,2-dihydroquinoline]
92%	COc1ccccc1C(=O)Oc1ccc(-c2ccc3c(c2COc2cc([N+](=O)[O-])ccc2C)C(C)=CC(C)(C)N3)c(OC)c1 [Compound 1-93, 6-[2-Methoxy-4-(2-methoxybenzoyloxy)phenyl]-5-(2-methyl-5-nitrophenoxymethyl)-2,2,4-trimethyl-1,2-dihydroquinoline]
100%	CCS(=O)(=O)Oc1ccc(-c2ccc3c(c2COc2cc([N+](=O)[O-])ccc2C)C(C)=CC(C)(C)N3)c(OC)c1 [Compound 4-23, 6-(4-Ethylsulfonyloxy-2-methoxyphenyl)-5-(2-methyl-5-nitrophenoxymethyl)-2,2,4-trimethyl-1,2-dihydroquinoline]
100%	COc1cc(OC(=O)c2occc2C)ccc1-c1ccc2c(c1COc1cc(F)ccc1C)C(C)=CC(C)(C)N2 [Compound 1-71, 5-(5-Fluoro-2-methylphenoxymethyl)-6-[2-methoxy-4-(3-methylfuran-2-ylcarbonyloxy)phenyl]-2,2,4-trimethyl-1,2-dihydroquinoline]
